A short description of data set [1]: Cytotoxicity against HEK293T cells assessed as inhibition of cell growth incubated for 72 hrs by MTT assay. The format is toxicity, cell-based, HEK-293T. The settings on record: human. (Tetrazolium assays rely on reduction of a dye to a coloured formazan, in cell work by metabolically active cells.)
Data set [2] concerns the target T1, von Hippel-Lindau disease tumor suppressor/Vascular endothelial growth factor receptor 2 (Homo sapiens, UniProt P35968+P40337). In words: PROTAC activity at VHL/VEGFR2 in human HGC-27 cells assessed as reduction in VEGFR2 protein level incubated for 24 hrs by Western blot analysis. The format is cell-based. Background: Immunoblotting shows a protein as a band on a membrane.
Target sequence in this assay (P35968 whole entry): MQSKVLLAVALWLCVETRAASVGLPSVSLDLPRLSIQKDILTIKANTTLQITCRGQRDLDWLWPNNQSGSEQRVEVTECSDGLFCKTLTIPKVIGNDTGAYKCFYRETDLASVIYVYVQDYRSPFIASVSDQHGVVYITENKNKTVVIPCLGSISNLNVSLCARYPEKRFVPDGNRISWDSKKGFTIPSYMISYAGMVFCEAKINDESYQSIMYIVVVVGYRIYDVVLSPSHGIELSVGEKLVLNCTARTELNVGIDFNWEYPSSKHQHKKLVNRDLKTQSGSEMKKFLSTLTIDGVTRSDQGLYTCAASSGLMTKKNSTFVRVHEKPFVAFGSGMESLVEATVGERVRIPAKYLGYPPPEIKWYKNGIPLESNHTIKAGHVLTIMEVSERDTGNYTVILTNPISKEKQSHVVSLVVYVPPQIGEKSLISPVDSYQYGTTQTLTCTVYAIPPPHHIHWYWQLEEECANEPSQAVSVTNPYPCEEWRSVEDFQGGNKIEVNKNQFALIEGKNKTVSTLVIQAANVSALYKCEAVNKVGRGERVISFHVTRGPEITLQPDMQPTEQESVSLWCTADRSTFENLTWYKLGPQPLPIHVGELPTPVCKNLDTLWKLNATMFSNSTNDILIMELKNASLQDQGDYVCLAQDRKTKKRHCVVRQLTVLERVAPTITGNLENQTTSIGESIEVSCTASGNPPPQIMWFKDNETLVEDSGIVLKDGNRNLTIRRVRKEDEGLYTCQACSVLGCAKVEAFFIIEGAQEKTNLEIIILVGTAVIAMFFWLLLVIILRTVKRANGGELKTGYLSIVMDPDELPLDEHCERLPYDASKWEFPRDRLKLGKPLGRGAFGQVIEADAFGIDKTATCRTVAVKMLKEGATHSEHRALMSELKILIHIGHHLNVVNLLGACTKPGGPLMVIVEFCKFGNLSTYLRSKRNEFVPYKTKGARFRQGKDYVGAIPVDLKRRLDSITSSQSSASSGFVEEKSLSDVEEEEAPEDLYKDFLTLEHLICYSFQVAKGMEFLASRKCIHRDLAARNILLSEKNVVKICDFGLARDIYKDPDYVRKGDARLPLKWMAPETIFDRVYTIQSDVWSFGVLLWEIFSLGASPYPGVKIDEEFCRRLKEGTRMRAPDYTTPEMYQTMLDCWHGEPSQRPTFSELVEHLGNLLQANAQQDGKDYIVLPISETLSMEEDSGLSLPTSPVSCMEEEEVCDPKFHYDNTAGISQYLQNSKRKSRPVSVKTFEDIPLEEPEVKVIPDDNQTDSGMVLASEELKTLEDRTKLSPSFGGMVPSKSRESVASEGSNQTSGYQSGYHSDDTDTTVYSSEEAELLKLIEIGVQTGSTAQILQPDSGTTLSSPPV
Target sequence in this assay (P40337 whole entry): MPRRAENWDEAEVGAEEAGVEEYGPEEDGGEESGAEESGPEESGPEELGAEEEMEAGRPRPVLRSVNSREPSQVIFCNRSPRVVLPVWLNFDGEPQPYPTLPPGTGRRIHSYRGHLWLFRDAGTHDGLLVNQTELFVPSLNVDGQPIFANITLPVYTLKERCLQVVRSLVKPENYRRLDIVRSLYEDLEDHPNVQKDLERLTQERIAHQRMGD

The target in data set [3] is T1, von Hippel-Lindau disease tumor suppressor/Vascular endothelial growth factor receptor 2. In words: PROTAC activity at VHL/VEGFR2 in human HGC-27 cells assessed as induction of VEGFR2 degradation at 1 uM measured after 8 hrs by Western blot analysis relative to control. Type of data set: cell-based.
Target sequence in this assay (P35968 20-1356 limits assumed): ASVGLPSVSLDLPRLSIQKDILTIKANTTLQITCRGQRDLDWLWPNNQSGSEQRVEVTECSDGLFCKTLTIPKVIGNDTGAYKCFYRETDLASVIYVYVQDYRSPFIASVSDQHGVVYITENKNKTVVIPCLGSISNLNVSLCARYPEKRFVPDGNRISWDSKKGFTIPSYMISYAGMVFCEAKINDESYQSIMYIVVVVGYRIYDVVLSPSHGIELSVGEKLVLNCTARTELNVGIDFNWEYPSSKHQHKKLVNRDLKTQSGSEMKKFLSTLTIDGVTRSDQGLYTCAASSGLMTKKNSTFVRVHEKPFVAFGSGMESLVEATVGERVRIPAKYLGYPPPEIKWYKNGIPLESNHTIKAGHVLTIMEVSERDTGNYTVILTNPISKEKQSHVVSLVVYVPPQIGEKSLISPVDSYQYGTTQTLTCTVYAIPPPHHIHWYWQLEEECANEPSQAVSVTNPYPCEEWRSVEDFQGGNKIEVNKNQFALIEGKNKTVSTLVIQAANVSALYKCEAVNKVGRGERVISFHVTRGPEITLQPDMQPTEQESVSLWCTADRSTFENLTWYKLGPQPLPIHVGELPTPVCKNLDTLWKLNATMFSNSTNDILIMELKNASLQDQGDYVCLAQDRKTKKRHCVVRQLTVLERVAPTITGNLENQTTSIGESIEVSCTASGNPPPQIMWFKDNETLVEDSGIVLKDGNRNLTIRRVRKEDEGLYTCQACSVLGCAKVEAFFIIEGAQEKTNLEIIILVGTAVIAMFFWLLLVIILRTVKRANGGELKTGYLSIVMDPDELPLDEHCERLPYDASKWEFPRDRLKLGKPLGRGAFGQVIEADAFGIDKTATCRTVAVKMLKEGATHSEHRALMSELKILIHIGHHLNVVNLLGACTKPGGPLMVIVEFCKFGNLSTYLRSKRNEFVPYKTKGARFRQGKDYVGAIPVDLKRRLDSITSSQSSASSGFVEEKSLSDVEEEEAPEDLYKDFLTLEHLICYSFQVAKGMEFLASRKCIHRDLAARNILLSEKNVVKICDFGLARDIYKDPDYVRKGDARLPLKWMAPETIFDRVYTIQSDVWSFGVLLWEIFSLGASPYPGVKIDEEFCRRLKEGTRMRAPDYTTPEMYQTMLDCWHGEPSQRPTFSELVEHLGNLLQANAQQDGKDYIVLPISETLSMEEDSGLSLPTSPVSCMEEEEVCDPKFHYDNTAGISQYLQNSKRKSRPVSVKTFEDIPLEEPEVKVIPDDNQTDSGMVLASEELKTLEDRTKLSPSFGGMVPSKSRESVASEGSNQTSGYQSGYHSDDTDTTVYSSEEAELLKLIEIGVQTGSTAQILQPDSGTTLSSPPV
Target sequence in this assay (P40337 whole entry partner): as the sequence (P40337 whole entry) above
The target is the same in data set [4]. In words: PROTAC activity at VHL/VEGFR2 in human HGC-27 cells assessed as induction of VEGFR2 degradation at 1 uM measured after 24 hrs by Western blot analysis relative to control. Type of data set: cell-based.
Target sequence in this assay (P35968 20-1356 limits assumed): as the sequence (P35968 20-1356 limits assumed) above
Target sequence in this assay (P40337 whole entry partner): as the sequence (P40337 whole entry) above
For data set [5] the target is unchanged. The data set is described as follows: PROTAC activity at VHL/VEGFR2 in human HGC-27 cells assessed as induction of VEGFR2 degradation at 1 uM measured after 36 hrs by Western blot analysis relative to control. The format is cell-based.
Target sequence in this assay (P35968 20-1356 limits assumed): as the sequence (P35968 20-1356 limits assumed) above
Target sequence in this assay (P40337 whole entry partner): as the sequence (P40337 whole entry) above
Data set [6] shares this target. In words: PROTAC activity at VHL/VEGFR2 in human HGC-27 cells assessed as residual activity by measuring VEGFR2 expression level at 1 uM incubated for 24 hrs followed by compound washout and measured after 12 hrs by Western blot analysis relative to control. Type of data set: cell-based.
Target sequence in this assay (P35968 20-1356 limits assumed): as the sequence (P35968 20-1356 limits assumed) above
Target sequence in this assay (P40337 whole entry partner): as the sequence (P40337 whole entry) above
For data set [7] the target is unchanged. In words: PROTAC activity at VHL/VEGFR2 in human HGC-27 cells assessed as induction of VEGRF2 protein degradation at 1 uM preincubated with MG-132 for 2 hrs followed by compound addition and measured after 24 hrs by Western blot analysis. The format is cell-based.
Target sequence in this assay (P35968 20-1356 limits assumed): as the sequence (P35968 20-1356 limits assumed) above
Target sequence in this assay (P40337 whole entry partner): as the sequence (P40337 whole entry) above
The target is the same in data set [8]. In words: PROTAC activity at VHL/VEGFR2 in human HGC-27 cells assessed as reduction in relative VEGRF2 expression level at 1 uM preincubated with MLN4924 for 2 hrs followed by compound addition and measured after 24 hrs by Western blot analysis. Type of data set: cell-based.
Target sequence in this assay (P35968 20-1356 limits assumed): as the sequence (P35968 20-1356 limits assumed) above
Target sequence in this assay (P40337 whole entry partner): as the sequence (P40337 whole entry) above
The nature of data set [9]: Effect on VEGFR2 mRNA expression in human HGC-27 cells at 1 uM incubated for 24 hrs by qPCR analysis relative to control. Type of data set: functional. (In general: Real-time PCR tracks product formation cycle by cycle.)
The nature of data set [10]: Effect on VEGFR2 mRNA expression in human HGC-27 cells at 3.33 uM incubated for 24 hrs by qPCR analysis relative to control. The format is functional.
Data set [11] concerns HGC-27. The data set is described as follows: Inhibition of colony formation in human HGC-27 cells at 1 to 3.33 uM incubated for 8 days by crystal violet staining based analysis relative to control. Type of data set: functional. The settings on record: dose 1-3.33 µM, time 8 day.
In data set [12] the test system is HGC-27. The data set is described as follows: Inhibition of cell migration in human HGC-27 cells measured upto 24 hrs by wound healing assay. Type of data set: functional, cell-based. The settings on record: dose 0.033-3.33 µM.
For data set [13], the system named is HGC-27. In words: Antiinvasive activity in human HGC-27 cells assessed as reduction in number of invasive cells at 0.033 uM incubated for 24 hrs by transwell invasion assay (reference value: 118). The format is functional.
Data set [14] concerns HGC-27. The data set is described as follows: Induction of cell cycle arrest in human HGC-27 cells assessed as accumulation of cells at G2/M phase incubated for 24 hrs by PI staining based flow cytometric analysis. Type of data set: functional. The conditions noted are these: dose 0.033-3.33 µM.
The test system of data set [15] is HGC-27. The data set is described as follows: Induction of apoptosis in human HGC-27 cells assessed as viable cells at 0.033 uM incubated for 24 hrs by Annexin V-FITC/PI staining based analysis (reference value: 95.3%). The conditions noted are these: read-out: Activity. Type of data set: functional.
The test system of data set [16] is HGC-27. The data set is described as follows: Induction of apoptosis in human HGC-27 cells assessed as early apoptotic cells at 0.1 uM incubated for 24 hrs by Annexin V-FITC/PI staining based analysis (reference value: 1.7 %). Type of data set: functional.
The subject of data set [17] is HGC-27. In words: Induction of apoptosis in human HGC-27 cells assessed as early apoptotic cells at 3.3 uM incubated for 24 hrs by Annexin V-FITC/PI staining based analysis (reference value: 1.7 %). The format is functional.
Data set [18] has as its system HGC-27. The data set is described as follows: Induction of apoptosis in human HGC-27 cells assessed as late apoptotic cells at 3.3 uM incubated for 24 hrs by Annexin V-FITC/PI staining based analysis (reference value: 3%). Type of data set: functional.
In data set [19] the test system is HGC-27. In words: Induction of cell cycle arrest in human HGC-27 cells assessed as G2/M phase cells at 0.33 uM incubated for 24 hrs by PI staining based flow cytometric analysis (reference value: 13.3%). The format is functional.
Data set [20] concerns HGC-27. The data set is described as follows: Induction of cell cycle arrest in human HGC-27 cells assessed as G0/G1 phase cells at 1 uM incubated for 24 hrs by PI staining based flow cytometric analysis (reference value: 47.4%). Type of data set: functional.
Data set [21] has as its system HGC-27. In words: Induction of cell cycle arrest in human HGC-27 cells assessed as G2/M phase cells at 1 uM incubated for 24 hrs by PI staining based flow cytometric analysis (reference value: 13.3%). The format is functional.
Data set [22] concerns HGC-27. In words: Induction of cell cycle arrest in human HGC-27 cells assessed as S phase cells at 3.33 uM incubated for 24 hrs by PI staining based flow cytometric analysis (reference value: 26.4%). The format is functional.
Data set [23] has as its system HGC-27. The data set is described as follows: Induction of cell cycle arrest in human HGC-27 cells assessed as G2/M phase cells at 3.33 uM incubated for 24 hrs by PI staining based flow cytometric analysis (reference value: 13.3%). Type of data set: functional.

pEC50: −log10 of the molar value. Calls of active or inactive are those of the source. The calls are words filed in the database; no cut-off is given here.

In general, IC50 refers to the midpoint of a concentration-inhibition curve. The term pEC50 denotes −log10 of the EC50, conventionally taken in molar units.

As to `Cc1ccc(NC(=O)Cn2cc(-c3ccc4c(NC(=O)c5ccc(NC(=O)CCCCCCCCC(=O)N[C@H](C(=O)N6C[C@H](O)C[C@H]6C(=O)NCc6ccc(-c7scnc7C)cc6)C(C)(C)C)cc5)n[nH]c4c3)cn2)cc1C(F)(F)F`, the IC50 at 72 h in data set [1] turned out to be 14.5 µM. Further, in data set [2], the pEC50 was 7.08. Besides, the Activity in [3] is 18.2%; in [4] it was 51.4%; in data set [5], 60.6%; in data set [6], 66.3%; in data set [9], 91.3%; in data set [10], 105.3%. In addition, the Activity in the data set with HGC-27 [13] was 116; with HGC-27 [14], “Dose-Dependent Effect”; in the data set on HGC-27 [16], 3.5%; with HGC-27 [17], 15%; with HGC-27 [18], 30.5%; in the data set on HGC-27 [19], 37.7%. Besides, the Activity in the data set with HGC-27 [20] was 12.5%; in the data set with HGC-27 [21] it was 45.9%; with HGC-27 [22], 21.2%; in the data set on HGC-27 [23], 56.8%. For the same molecule, the outcome in data set [7] and in [8] was inactive. For the same molecule, in the data set on HGC-27 [11], the “inhibition (INH)” value is 100%. Besides, in the data set on HGC-27 [12], the inhibition result is “Dose-Dependent Effect”. Besides, in the data set with HGC-27 [15], the viability at 0.033 µM stood at 93%.
